The values below come from ChEMBL document CHEMBL4808173, “Discovery of Novel Benzimidazole and Indazole Analogues as Tubulin Polymerization Inhibitors with Potent Anticancer Activities” (J Med Chem, 2021).

Common to all, as to type: functional, cell-based
One assay has as its system B16-F10. Briefly: Antiproliferative activity against mouse B16-F10 cells assessed as reduction in cell viability measured after 48 hrs by MTT assay. As to conditions: B16-F10, 48 h.
The subject of a further assay is HeLa. The assay is described as follows: Antiproliferative activity against human HeLa cells assessed as reduction in cell viability measured after 48 hrs by MTT assay.
The subject of the next assay is MCF7. Briefly: Antiproliferative activity against human MCF7 cells assessed as reduction in cell viability measured after 48 hrs by MTT assay. As to conditions: MCF7, 48 h.
For a further assay, the system named is A549. Briefly: Antiproliferative activity against human A549 cells assessed as reduction in cell viability measured after 48 hrs by MTT assay. As to conditions: A549, 48 h.
The test system of another assay is A2780/Taxol. Briefly: Antiproliferative activity against human A2780T cells assessed as reduction in cell viability measured after 48 hrs by MTT assay.
A further assay concerns A2780S. Briefly: Antiproliferative activity against human A2780S cells assessed as reduction in cell viability measured after 48 hrs by MTT assay.

A value given as a limit tells only on which side of the number the result lay.

With `COc1cc(-c2n[nH]c3ccc(-c4cccc(C#N)c4)cc23)cc(OC)c1OC`, the IC50 is 1.71 µM in the assay with B16-F10, 2.04 µM in the assay with HeLa, 2380 nM in the assay with MCF7 and 1040 nM in the assay with A549.
The like results for `CCCCn1ccc2c(-c3nc4c(-c5cc(OC)c(OC)c(OC)c5)cccc4[nH]3)cccc21` were, in that order, > 10 µM, > 10 µM, > 10000 nM and > 10000 nM.
As for `COc1cc(-c2nccn3c(-c4cc(OC)c(OC)c(OC)c4)cnc23)cc(OC)c1OC`, the IC50 in the assay with B16-F10 was > 10 µM; with HeLa it was > 10 µM; in the assay with MCF7, > 10000 nM; in the assay on A549, > 10000 nM.
`COc1cc(-c2n[nH]c3ccc(-c4ccc(C(=N)NO)cc4)cc23)cc(OC)c1OC`: the IC50 in the assay with B16-F10 stood at 1.6 µM; with HeLa it was 3.79 µM; in the assay with MCF7, 3160 nM; in the assay with A549, 2980 nM.
On the same counts, the results for `COc1cc(-c2nccn3c(-c4ccc5c(ccn5C)c4)cnc23)cc(OC)c1OC` are > 10 µM, > 10 µM, > 10000 nM and > 10000 nM.
Regarding `COc1cc(-c2ccnc3cc(-c4ccc(S(C)(=O)=O)cc4)nn23)cc([Se]C)c1OC`, the IC50 in the assay on B16-F10 came out at 8.52 µM; in the assay with HeLa, 8.52 µM; in the assay with MCF7 it was 3160 nM; in the assay with A549 it was 6980 nM.
As for `COc1cc(-c2n[nH]c3ccc(-c4ccccc4)cc23)cc(OC)c1OC`, the IC50 in the assay with B16-F10 came to 0.394 µM; in the assay on HeLa, 0.547 µM; in the assay with MCF7, 245 nM; in the assay on A549 it was 445 nM.
In the case of `COc1cc(-c2n[nH]c3ccc(-c4cccc(C(=N)NO)c4)cc23)cc(OC)c1OC`, the IC50 with B16-F10 was 8.03 µM; with HeLa, 4.68 µM; with MCF7 it was > 10000 nM; in the assay on A549 it was 6250 nM.
The like results for `Cn1ccc2cc(-c3nccn4c(-c5ccc6c(ccn6C)c5)cnc34)ccc21` were, in that order, > 10 µM, > 10 µM, > 10000 nM and > 10000 nM.
On to `COc1cc(-c2cccc3[nH]c(-c4cccc(C(=N)NO)c4)nc23)cc(OC)c1OC`, for which the IC50 in the assay on B16-F10 is > 10 µM; in the assay on HeLa, > 10 µM; with MCF7 it was > 10000 nM; in the assay with A549, > 10000 nM.
`COc1cc2c(c(OC)c1OC)-c1ccc(OC)c(=O)cc1[C@@H](NC(C)=O)CC2` [COLCHICINE]: the half-inhibitory concentration (IC50) stood at 0.083 µM with B16-F10; 0.083 µM in the assay with HeLa; 21 nM in the assay with MCF7; 784 nM in the assay with A2780/Taxol; 16.7 nM with A2780S.
With `COc1cc(-c2cnc3c(-c4ccc5c(ccn5C)c4)nccn23)cc(OC)c1OC`, the IC50 in the assay with B16-F10 was > 10 µM; in the assay with HeLa, > 10 µM; with MCF7, > 10000 nM; with A549 it was > 10000 nM.
For the compound `COc1cc(-c2ccc3[nH]nc(-c4ccc(F)cc4)c3c2)cc(OC)c1OC`, the IC50 was > 10 µM in the assay on B16-F10, > 10 µM in the assay on HeLa, > 10000 nM in the assay on MCF7 and > 10000 nM in the assay with A549.
For `COc1cc(-c2ccnc3cc(-c4ccc5cnn(C)c5c4)nn23)cc([Se]C)c1OC`, the IC50 stood at 3.7 µM with B16-F10, 3.7 µM in the assay with HeLa, 1180 nM in the assay with MCF7 and 1250 nM with A549.
As for `COc1cc(-c2cccc3[nH]c(-c4ccc(C(=N)NO)cc4)nc23)cc(OC)c1OC`, the IC50 in the assay on B16-F10 is > 10 µM; with HeLa, > 10 µM; with MCF7 it was > 10000 nM; in the assay on A549 it was > 10000 nM.
For the compound `COc1cc(-c2ccc3[nH]nc(-c4ccc(C#N)cc4)c3c2)cc(OC)c1OC`, the IC50 with B16-F10 was > 10 µM; with HeLa it was > 10 µM; with MCF7, > 10000 nM; in the assay with A549, > 10000 nM.
As for `COc1cc(-c2cccc3[nH]c(-c4ccc5c(ccn5C)c4)nc23)cc(OC)c1OC`, the IC50 with B16-F10 came out at 0.746 µM; in the assay on HeLa it was 1.54 µM; in the assay on MCF7, 700 nM; in the assay on A549, 2600 nM.
On the same counts, the results for `COc1cc(-c2n[nH]c3ccc(-c4ccc5c(cnn5C)c4)cc23)cc(OC)c1OC` are 2.62 µM, 2.02 µM, 360 nM and 6220 nM.
As to `COc1cc(-c2ccnc3cc(-c4cn(CO)c5ccccc45)nn23)cc([Se]C)c1OC`, the IC50 in the assay on B16-F10 worked out at 0.856 µM; in the assay on HeLa it was 0.856 µM; in the assay with MCF7, 313 nM; with A549, 224 nM.
For `COc1cc(-c2cccc3[nH]c(-c4cccc(C#N)c4)nc23)cc(OC)c1OC`, the IC50 in the assay with B16-F10 is 6.19 µM; in the assay on HeLa, 6.19 µM; in the assay on MCF7, > 10000 nM; in the assay with A549 it was > 10000 nM.
Consider `COc1ccc(-c2cc3nccc(-c4cc(OC)c(OC)c([Se]C)c4)n3n2)cc1[N+](=O)[O-]`, for which the IC50 is 7.95 µM with B16-F10, 7.95 µM in the assay on HeLa, 6190 nM in the assay with MCF7 and > 10000 nM with A549.
Take `COc1cc(-c2n[nH]c3ccc(-c4ccc5c(ccn5C)c4)cc23)cc(OC)c1OC`: the IC50 in the assay on B16-F10 was 0.064 µM; in the assay on HeLa, 0.141 µM; in the assay on MCF7, 26 nM; with A549 it was 93 nM.
On to `COc1cc(-c2ccnc3cc(-c4ccc(C)cc4)nn23)cc([Se]C)c1OC`, for which the IC50 in the assay on B16-F10 amounted to 0.443 µM; with HeLa, 0.443 µM; in the assay with MCF7 it was 168 nM; in the assay with A549 it was 231 nM.
`COc1cc(-c2ccnc3cc(-c4c[nH]c5ccccc45)nn23)cc([Se]C)c1OC`: the IC50 with B16-F10 stood at 0.662 µM; in the assay on HeLa it was 0.662 µM; with MCF7, 349 nM; in the assay on A549, 360 nM.
Consider `COc1cc(-c2ccc3[nH]nc(-c4cccc(C#N)c4)c3c2)cc(OC)c1OC`, for which the IC50 is > 10 µM in the assay with B16-F10, > 10 µM in the assay on HeLa, > 10000 nM in the assay with MCF7 and > 10000 nM with A549.
Regarding `COc1ccc(-c2ccc3[nH]nc(-c4cc(OC)c(OC)c(OC)c4)c3c2)cc1`, the IC50 was 0.161 µM in the assay on B16-F10, 0.132 µM in the assay with HeLa, 37 nM in the assay on MCF7 and 191 nM with A549.
For `COc1cc(-c2ccc3[nH]nc(-c4ccc5c(ccn5C)c4)c3c2)cc(OC)c1OC`, the IC50 was 9.26 µM in the assay on B16-F10, 8.03 µM in the assay with HeLa, 9980 nM with MCF7 and > 10000 nM in the assay with A549.
Consider `COc1cc(-c2n[nH]c3ccc(-c4ccc(C)cc4)cc23)cc(OC)c1OC`, for which the IC50 in the assay with B16-F10 was found to be 0.054 µM; in the assay on HeLa, 0.265 µM; in the assay with MCF7, 43 nM; in the assay with A549, 531 nM.
As to `COc1cc(-c2cccc3[nH]c(-c4cn(C)c5ccccc45)nc23)cc(OC)c1OC`, the IC50 came out at 0.631 µM in the assay on B16-F10, 0.981 µM with HeLa, 176 nM with MCF7 and 1010 nM with A549.
The like results for `COc1cc(-c2ccc3[nH]nc(-c4ccc(C(=N)NO)cc4)c3c2)cc(OC)c1OC` were, in that order, > 10 µM, > 10 µM, > 10000 nM and > 10000 nM.
For the compound `COc1cc(-c2cccc3[nH]c(-c4ccc(C#N)cc4)nc23)cc(OC)c1OC`, the IC50 with B16-F10 is > 10 µM; with HeLa, > 10 µM; in the assay on MCF7, > 10000 nM; with A549, > 10000 nM.
Consider `COc1cc(-c2ccnc3cc(-c4ccccc4)nn23)cc([Se]C)c1OC`, for which the IC50 in the assay with B16-F10 is 7.12 µM; in the assay on HeLa, 7.12 µM; in the assay on MCF7, 3160 nM; with A549 it was > 10000 nM.
For the compound `COc1cc(-c2ccc3[nH]nc(-c4ccc(C)cc4)c3c2)cc(OC)c1OC`, the IC50 is > 10 µM with B16-F10, > 10 µM in the assay with HeLa, > 10000 nM with MCF7 and > 10000 nM in the assay with A549.
As to `COc1cc(-c2n[nH]c3ccc(-c4ccc(C#N)cc4)cc23)cc(OC)c1OC`, the IC50 with B16-F10 came out at 1.41 µM; with HeLa, 2.07 µM; in the assay on MCF7 it was 1050 nM; in the assay on A549, 1030 nM.
The like results for `COc1cc(-c2ccc3[nH]nc(-c4cccc(C(=N)NO)c4)c3c2)cc(OC)c1OC` were, in that order, > 10 µM, > 10 µM, > 10000 nM and > 10000 nM.
Regarding `COc1cc(-c2ccnc3cc(-c4ccc5c(ccn5C)c4)nn23)cc([Se]C)c1OC`, the IC50 was found to be 0.126 µM in the assay on B16-F10, 0.126 µM in the assay on HeLa, 123 nM in the assay on MCF7 and 372 nM in the assay on A549.
With `COc1ccc(-c2n[nH]c3ccc(-c4cc(OC)c(OC)c(OC)c4)cc23)cc1`, the IC50 in the assay with B16-F10 was > 10 µM; in the assay on HeLa, > 10 µM; with MCF7, > 10000 nM; in the assay with A549, > 10000 nM.
For `COc1cc(-c2ccc3[nH]nc(-c4cc(OC)c(OC)c(OC)c4)c3c2)cc(OC)c1OC`, the IC50 in the assay on B16-F10 is 7.27 µM; with HeLa, 8.62 µM; with MCF7, > 10000 nM; in the assay with A549 it was 7900 nM.
Take `COc1cc(-c2ccc3[nH]nc(-c4ccccc4)c3c2)cc(OC)c1OC`: the IC50 in the assay on B16-F10 is > 10 µM; in the assay with HeLa it was > 10 µM; in the assay with MCF7, > 10000 nM; in the assay on A549 it was > 10000 nM.
In the case of `COc1cc(-c2n[nH]c3ccc(-c4ccc(F)cc4)cc23)cc(OC)c1OC`, the IC50 with B16-F10 came to 0.635 µM; in the assay on HeLa, 0.926 µM; in the assay with MCF7 it was 606 nM; in the assay on A549, 759 nM.
